Values after ≈ are worked out from the molar mass of the structure shown. Like-named read-outs stand apart in the source and are kept apart here.
Legend:
[1] = Single-dose pharmacokinetic study (BBB penetration); assay type: in vivo; conditions: single-dose 20 mg/kg, intravenously or orally, mice
Description: LOC14 administered via (FIG. 17A) intravenous or (FIG. 17B) oral route to wild-type C57BL/6j mice at 20 mg/kg. The concentration of compound in the brain tissue and plasma is shown for each individual mouse (represented by dots). The horizontal lines represent the mean±SD (n=3).
Showing promising in vitro metabolic properties, LOC14 was tested in a single-dose pharmacokinetic (PK) study. This was a pilot study to evaluate the ability of LOC14 to traverse the blood-brain barrier (BBB). In this study, LOC14 was administered via two routes, intravenously (FIG. 17A) or orally (FIG. 17B), at a single-dose of 20 mg/kg to wild-type C57BL/6j mice.

physchem = conditions: organic solvent or mixture
[2] = Mouse microsome stability assay; assay type: in vitro ADME; conditions: for half-life at 0.5 μM: mouse, liver microsomes, pH 7.4, mouse liver microsomes
Description: At 0, 5, 15, 30 and 45 minute intervals, an aliquot was taken and quenched with acetonitrile (ACN) containing internal standard. No-cofactor controls at 45 minutes were prepared. Following completion of the experimentation, the samples were analyzed by LC-MS/MS. […] C=initial×exp (−k×t). Intrinsic clearance (CLint) was calculated as liver clearance from the half-life using the following equation: CLint=k×(ml incubation/0.5 mg protein)×(52.5 mg protein/g liver). Results were reported as peak area ratios of analyte to internal standard. The intrinsic clearance (CLint) was determined from the first order elimination constant by non-linear regression. The microsome stability assay, plasma stability assay, and plasma protein binding assay were each performed by Alliance Pharma, Inc. (Malvern, Pa.).

[3] = test system: striatal medium spiny neurons (MSNs); experiment: HD brain slice assay (mHTT-Q73 transfected corticostriatal explants); assay type: cell-based; conditions: rat corticostriatal brain slice explants, YFP + mHTT-Q73, 4 days
Description: Brain slice explants were prepared and transfected as previously described (Reinhart et al., 2011). Briefly, brains were taken from postnatal day 10 CD Sprague-Dawley rat pups and cut into 250 μm coronal slices on a vibratome (Vibratome Co., St. Louis, Mo.). Brain slices containing striatum and cortex were then placed in individual wells of 12-well plates atop culture medium set in 0.5% agarose and maintained at 32° C. under 5% CO2. Co-transfection with YFP and Htt exon-1 containing a 73 polyglutamine repeat was done using a biolistic device (Bio-Rad Helios Gene Gun, Hercules, Calif.). Positive controls were transfected with YFP only or treated with a combination of 50 μM KW-6002 (istradefylline) and 50 μM SP600125. Negative control brain slices were treated with 0.1% DMSO carrier only. Striatal medium spiny neurons (MSNs) expressing YFP were visualized under fluorescence microscopy and identified based on their location within brain slices and their characteristic morphology.
Having elucidated aspects of the biophysical mechanism of action of LOC14 binding to PDI, the next exploration concerned whether LOC14 would be a good candidate for in vivo studies. […] In the absence of LOC14, very few healthy MSNs remained, as assessed by the lack of normal sized and shaped cell bodies, absence of long primary dendrites, and lack of continuous expression of YFP throughout the cell (FIG. 10).

[4] = target: T1, human catalytic PDI A1 a domain (PDIa) (Homo sapiens, UniProt P07237); experiment: Isothermal titration calorimetry (ITC) binding to PDIa
T1 construct: made in house; host or cells: Escherichia coli BL21-Gold (DE3)

plasma proteins = experiment: Mouse plasma protein binding assay; assay type: in vitro ADME; conditions: mouse plasma
Description: (§1) A test compound at the concentration of 2000 ng/mL in plasma was added into the sample chamber, and a dialysis buffer phosphate-buffered saline (PBS) was added into the buffer chamber, covering the unit with sealing tape and incubating for 4 hours at 37° C. at approximately 100 rpm on an orbital shaker. The incubation samples were taken from both plasma and buffer chamber at the end of the incubation, and then samples were analyzed by LC-MS/MS. Protein binding and free fraction percentage were determined using peak area ratio of analyte to internal standard. Fraction bound percent was calculated as: % Bound=100*(Cplasma−CPBS)/Cplasma. The fraction recovered percent was calculated as: % Recovery=(VPBS*CPBS+Vplasma*Cplasma)/(Vplasma*Cspike) where VPBS is Volume of PBS, Vplasma is Volume of Plasma, CPBS is Drug concentration in PBS (Analyte/IS peak area ratio), Cplasma is Drug concentration in plasma (Analyte/IS peak area ratio), Cspike is Drug concentration in spiked plasma (Analyte/IS peak area ratio).

[5] = Mouse plasma protein binding assay; assay type: in vitro ADME; conditions: mouse; plasma, compound 2000 ng/mL, mean±SD (n=3)
Description: as §1

[6] = target: T2, recombinant catalytic a domain of human PDI A1 (PDIa) (Homo sapiens, UniProt P07237); experiment: Insulin aggregation assay (PDIa reductase activity); assay type: biochemical
T2 construct: made in house; host or cells: Escherichia coli BL21-Gold (DE3)

[7] = mouse liver microsomes, compound 0.5 μM

T1 sequence (P07237 with tags, fused parts or gaps): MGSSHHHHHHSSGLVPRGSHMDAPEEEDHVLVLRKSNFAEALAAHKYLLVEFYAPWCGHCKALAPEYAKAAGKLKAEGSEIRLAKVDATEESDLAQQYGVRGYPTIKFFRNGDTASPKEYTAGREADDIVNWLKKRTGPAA
T2 sequence (P07237 with tags, fused parts or gaps): as above

## O=C(C1CC1)N1CCN(Cn2sc3ccccc3c2=O)CC1 [LOC14, 2-((4-(cyclopropanecarbonyl)piperazin-1-yl)methyl)benzo[d]isothiazol-3(2H)-one]
[1]
  blood-brain barrier penetration: penetrated the BBB
  tolerability: well tolerated
physchem; DMSO
  solubility: 40 mg/mL (≈ 126 mM)
physchem; EtOH
  solubility: 20 mg/mL (≈ 63 mM)
physchem; MeOH
  solubility: 40 mg/mL (≈ 126 mM)
physchem; NMP
  solubility: 80 mg/mL (≈ 252 mM)
[2]; mouse liver microsomes
  intrinsic clearance value: less than 0.5 ml/min/g
[2]; [7]
  Elimination rate constant (k): 0.0016
  Intrinsic Clearance (CLint), mL/min/g liver: 0.17 mL/min/g liver
[2]; compound 0.5 μM, read-out: Half-life (t1/2)
  half-life at 0.5 μM: 7.31 h
[2]; read-out: half-life
  half-life at 0.5 μM: > 1.5 h
[3]
  rescue of MSNs from mutant huntingtin-induced neurodegeneration: rescued MSNs in a concentration-dependent manner
[4]; 40 μM PDIa pre-treated overnight with 200 μM 16F16
  binding affinity to PDIa with 16F16 pre-treatment: reduced
[4]; PDIa, Table 5, read-out: ITC Assay KD
  Kd: 113 nM
[4]; reduced PDIa 40 μM, compound 400 μM, 25° C., read-out: dissociation constant (Kd)
  Kd: 61.7 ± 5.6 nM
Plasma proteins
  binding to the plasma proteins: low binding
[5]
  recovery at 4 h, 2000 ng/mL: 113.8 ± 0.76%
[6]; compound 75 μM, PDIa 5 μM
  inhibition of PDIa enzymatic activity: almost completely inhibit
[6]; compound 750 μM
  inhibition of PDI's reduction of insulin without dilution: able to inhibit

From US20180092908A1, “SMALL MOLECULE OXIDIZERS OF PDI AND THEIR USE” (THE TRUSTEES OF COLUMBIA UNIVERSITY IN THE CITY OF NEW YORK, priority 2015, published 2018)
